Columns and labels:
[1] = molecular target: T1, wild type AXL (wtAXL) receptor tyrosine kinase (Homo sapiens, UniProt P30530); experiment: NIH-3T3-AXL cellular tyrosine kinase assay (inhibition of AXL phosphorylation); assay type: cell-based; conditions: AXL phosphorylation in NIH-3T3-AXL (clone 22) cells, serum-depleted, 2 h with compound, immunoprecipitation / anti-phosphotyrosine blot
T1 construct: WtAXL cDNA was cloned into vector pLXSN(ESK) and transfected into Phoenix E packaging cells; expressed in transfected cells; host or cells: NIH3T3 N7 mouse fibroblasts, retrovirally infected (clone 22)
T1 sequence (P30530 26-894): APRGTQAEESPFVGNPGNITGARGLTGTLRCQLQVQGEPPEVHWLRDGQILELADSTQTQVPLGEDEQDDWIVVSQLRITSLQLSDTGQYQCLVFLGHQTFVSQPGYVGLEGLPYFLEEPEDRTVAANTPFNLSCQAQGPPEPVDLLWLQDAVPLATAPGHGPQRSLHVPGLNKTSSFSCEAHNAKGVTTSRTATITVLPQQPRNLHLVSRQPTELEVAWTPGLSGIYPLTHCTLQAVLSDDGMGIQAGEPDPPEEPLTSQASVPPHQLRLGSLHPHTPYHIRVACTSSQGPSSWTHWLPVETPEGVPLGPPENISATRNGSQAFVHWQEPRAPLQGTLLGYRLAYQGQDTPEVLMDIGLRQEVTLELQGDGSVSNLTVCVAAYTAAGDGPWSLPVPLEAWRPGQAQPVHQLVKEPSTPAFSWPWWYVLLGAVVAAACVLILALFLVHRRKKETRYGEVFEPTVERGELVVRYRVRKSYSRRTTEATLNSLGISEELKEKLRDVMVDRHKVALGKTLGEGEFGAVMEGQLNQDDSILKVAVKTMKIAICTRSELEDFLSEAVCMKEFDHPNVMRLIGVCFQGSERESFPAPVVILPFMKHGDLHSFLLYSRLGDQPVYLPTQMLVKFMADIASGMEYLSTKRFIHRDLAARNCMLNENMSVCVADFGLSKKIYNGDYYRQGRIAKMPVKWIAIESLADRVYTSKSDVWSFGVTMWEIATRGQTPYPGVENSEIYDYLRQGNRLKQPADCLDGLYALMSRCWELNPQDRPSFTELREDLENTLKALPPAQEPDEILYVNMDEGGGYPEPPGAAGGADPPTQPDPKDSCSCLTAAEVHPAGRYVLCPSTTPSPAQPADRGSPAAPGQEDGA
Summary of the method: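 Compound inhibition of AXL autophosphorylation was read by 4G10 immunoblot after anti-AXL immunoprecipitation from lysates. Cells: NIH3T3 lines stably carrying retroviral wild-type human AXL, treated 2 h with compound dilution series.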

Row | SMILES | melting point | IC50 [1]
1 | Cc1cc(Oc2ccc(NS(=O)(=O)c3cc(Cl)ccc3Cl)c(F)c2)c2cccc(C(F)(F)F)c2n1 [Example C05, 2,5-Dichloro-N-[2-fluoro-4-(2-methyl-8-trifluoromethyl-quinolin-4-yloxy)-phenyl]-benzenesulfonamid] | 207 to 209 °C | > 10 µM
2 | Cc1cc(Oc2ccc(NS(=O)(=O)c3c(Cl)cccc3Cl)c(F)c2)c2cccc(C(F)(F)F)c2n1 [Example C06, 2,6-Dichloro-N-[2-fluoro-4-(2-methyl-8-trifluoromethyl-quinolin-4-yloxy)-phenyl]-benzenesulfonamide] | 171 to 173 °C | > 10 µM
3 | Cc1cc(Oc2ccc(NS(=O)(=O)c3ccccc3C(F)(F)F)c(F)c2)c2cccc(C(F)(F)F)c2n1 [Example C07, N-[2-Fluoro-4-(2-methyl-8-trifluoromethyl-quinolin-4-yloxy)-phenyl]-2-trifluoromethyl-benzenesulfonamid] | 183 to 185 °C | > 10 µM
4 | COc1ccc(S(=O)(=O)Nc2ccc(Oc3cc(C)nc4c(C(F)(F)F)cccc34)c(F)c2)c2ccccc12 [Example C08, 4-Methoxy-naphthalene-1-sulfonic acid [3-fluoro-4-(2-methyl-8-trifluoromethyl-quinolin-4-yloxy)-phenyl]-amide] | 242 to 244 °C | > 10 µM
5 | COc1ccc(S(=O)(=O)Nc2ccc(Oc3cc(C)nc4c(C(F)(F)F)cccc34)c(F)c2)cc1F [Example C09, 3-Fluoro-N-[3-fluoro-4-(2-methyl-8-trifluoromethyl-quinolin-4-yloxy)-phenyl]-4-methoxy-benzenesulfonamide] | 128 to 130 °C | > 10 µM
6 | COc1cc(C)c(C)cc1S(=O)(=O)Nc1ccc(Oc2cc(C)nc3c(C(F)(F)F)cccc23)c(F)c1 [Example C10, N-[3-Fluoro-4-(2-methyl-8-trifluoromethyl-quinolin-4-yloxy)-phenyl]-2-methoxy-4,5-dimethyl-benzenesulfonamide] | 230 to 232 °C | > 10 µM
7 | Cc1cc(Oc2ccc(NS(=O)(=O)c3cc(F)ccc3F)c(F)c2)c2cccc(C(F)(F)F)c2n1 [Example C11, 2,5-Difluoro-N-[2-fluoro-4-(2-methyl-8-trifluoromethyl-quinolin-4-yloxy)-phenyl]-benzenesulfonamide] | 179 to 181 °C | > 10 µM
8 | Cc1cc(Oc2ccc(NS(=O)(=O)c3ccc(F)c(Cl)c3)c(F)c2)c2cccc(C(F)(F)F)c2n1 [Example C12, 3-Chloro-4-fluoro-N-[2-fluoro-4-(2-methyl-8-trifluoromethyl-quinolin-4-yloxy)-phenyl]-benzenesulfonamide] | 202 to 203 °C | > 10 µM
9 | Cc1cc(Oc2ccc(NS(=O)(=O)c3cnc(C)[nH]3)cc2F)c2cccc(C(F)(F)F)c2n1 [Example C13, 2-Methyl-3H-imidazole-4-sulfonic acid [3-fluoro-4-(2-methyl-8-trifluoromethyl-quinolin-4-yloxy)-phenyl]-amide] | 258 to 259 °C | > 1 µM
10 | Cc1cc(Oc2ccc(NS(=O)(=O)c3ccc(OCc4c(C)noc4C)cc3)cc2F)c2cccc(C(F)(F)F)c2n1 [Example C14, 4-(3,5-Dimethyl-isoxazol-4-ylmethoxy)-N-[3-fluoro-4-(2-methyl-8-trifluoromethyl-quinolin-4-yloxy)-phenyl]-benzenesulfonamide] | 193 to 195 °C | > 10 µM
11 | Cc1cc(Oc2ccc(NS(=O)(=O)c3ccc(-c4ccccc4)cc3)c(F)c2)c2cccc(C(F)(F)F)c2n1 [Example C15] | 215 to 217 °C | > 10 µM
12 | Cc1cc(Oc2ccc(NS(=O)(=O)c3cccc(-c4ncccn4)c3)c(F)c2)c2cccc(C(F)(F)F)c2n1 [Example C16, N-[2-Fluoro-4-(2-methyl-8-trifluoromethyl-quinolin-4-yloxy)-phenyl]-3-pyrimidin-2-yl-benzenesulfonamide] | 219 to 220 °C | > 10 µM
13 | Cc1cc(Oc2ccc(NS(=O)(=O)c3cc4ccccc4s3)c(F)c2)c2cccc(C(F)(F)F)c2n1 [Example C17, Benzo[b]thiophene-2-sulfonic acid [2-fluoro-4-(2-methyl-8-trifluoromethyl-quinolin-4-yloxy)-phenyl]-amide] | 182 to 184 °C | > 10 µM
14 | Cc1cc(Oc2ccc(NS(=O)(=O)c3csc4ccccc34)c(F)c2)c2cccc(C(F)(F)F)c2n1 [Example C18, Benzo[b]thiophene-3-sulfonic acid [2-fluoro-4-(2-methyl-8-trifluoromethyl-quinolin-4-yloxy)phenyl]-amide] | 242 to 244 °C | > 10 µM
15 | Cc1cc(Oc2ccc(NS(=O)(=O)c3ccc4c(c3)CC(=O)N4C)c(F)c2)c2cccc(C(F)(F)F)c2n1 [Example C19, 1-Methyl-2-oxo-2,3-dihydro-1H-indole-5-sulfonic acid [2-fluoro-4-(2-methyl-8-trifluoro-methyl-quinolin-4-yloxy)-phenyl]-amide] | 225 to 226 °C | > 10 µM
16 | COc1cc2c(Oc3ccc(NS(=O)(=O)c4cccc(-c5ccccc5)c4)c(F)c3)ccnc2cc1OCc1ccccc1 [Example D01, Biphenyl-3-sulfonic acid [4-(7-benzyloxy-6-methoxy-quinolin-4-yloxy)-2-fluoro-phenyl]-amide] | 228 to 229 °C | > 10 µM
17 | COc1cc2c(Oc3ccc(NS(=O)(=O)c4cccc(-c5ccccc5)c4)cc3F)ccnc2cc1OCCN1CCOCC1 [Example D04, Biphenyl-3-sulfonic acid {3-fluoro-4-[6-methoxy-7-(2-morpholin-4-yl-ethoxy)-quinolin-4-yloxy]-phenyl}-amide] | 103 to 104 °C | 0.32 µM
18 | COc1cc2c(Oc3ccc(NS(=O)(=O)c4ccccc4OC(F)(F)F)cc3F)ccnc2cc1OCCN1CCOCC1 [Example D06, N-{3-Fluoro-4-[6-methoxy-7-(2-morpholin-4-yl-ethoxy)-quinolin-4-yloxy]-phenyl}-2-trifluoromethoxy-benzenesulfonamide] | 185 to 187 °C | 0.069 µM
19 | COc1cc2c(Oc3ccc(NS(=O)(=O)c4cccc(-c5ccccc5)c4)c(C)c3)ccnc2cc1OCCN1CCOCC1 [Example D07, Biphenyl-3-sulfonic acid {4-[6-methoxy-7-(2-morpholin-4-yl-ethoxy)-quinolin-4-yloxy]-2-methyl-phenyl}-amide] | 105 to 107 °C | 0.35 µM
20 | COc1cc2c(Oc3ccc(NS(=O)(=O)c4ccccc4OC(F)(F)F)c(C)c3)ccnc2cc1OCCN1CCOCC1 [Example D08, N-{4-[6-Methoxy-7-(2-morpholin-4-yl-ethoxy)-quinolin-4-yloxy]-2-methyl-phenyl}-2-trifluoromethoxy-benzenesulfonamide] | 186 to 188 °C | 2.5 µM
21 | COc1cc2c(Oc3ccc(NS(=O)(=O)c4cc(F)ccc4F)c(C)c3)ccnc2cc1OCCN1CCOCC1 [Example D09, 2,5-Difluoro-N-{4-[6-methoxy-7-(2-morpholin-4-yl-ethoxy)-quinolin-4-yloxy]-2-methyl-phenyl}-benzenesulfonamide] | 195 to 196 °C | 2.46 µM
22 | COc1cc2c(Oc3ccc(NS(=O)(=O)c4ccccc4C(F)(F)F)c(C)c3)ccnc2cc1OCCN1CCOCC1 [Example D11, N-{4-[6-Methoxy-7-(2-morpholin-4-yl-ethoxy)-quinolin-4-yloxy]-2-methyl-phenyl}-2-trifluoromethyl-benzenesulfonamide] | 127 to 130 °C | > 3 µM
23 | COc1cc2c(Oc3ccc(NS(=O)(=O)c4ccc(Cl)cc4F)cc3F)ccnc2cc1OCCN1CCOCC1 [Example D12, 4-Chloro-2-fluoro-N-{3-fluoro-4-[6-methoxy-7-(2-morpholin-4-yl-ethoxy)-quinolin-4-yloxy]-phenyl}-benzenesulfonamide] | 212 to 214 °C | 0.3 µM
24 | COc1cc2c(Oc3ccc(NS(=O)(=O)c4ccc(OC)c5ccccc45)cc3F)ccnc2cc1OCCN1CCOCC1 [Example D13, 4-Methoxy-naphthalene-1-sulfonic acid {3-fluoro-4-[6-methoxy-7-(2-morpholin-4-yl-ethoxy)-quinolin-4-yloxy]-phenyl}-amide] | 189 to 190 °C | 0.057 µM

Reference: patent US9206130B2, “Quinoline derivatives as AXL kinase inhibitors” (Max-Planck-Gesellschaft zur Förderung der Wissenschaften …, priority 2008, dated 2015)
